For orientation: IC50 means the midpoint of a concentration-inhibition curve.

The structures appear in SMILES notation. Structures can show the parent of a compound that is named as a salt.

The text below walks through data of patent US8609653B2, “Azaindole compounds and methods for treating HIV” (priority 2011, dated 2013).

The test system of the test is HIV. Briefly: MT4 assay: antiviral HIV activity in MT-4 cells. The class given is cell-based. The following applies: Human immunodeficiency virus 1, MT4, 96 h, read-out: HIV MT4 Assay IC50 (μM), HTLV-1 transformed cell line MT-4; read-out 96 hours later with cell titer glo; 10 point dose response. In short, it runs like this: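 Compounds tested in HTLV-1-transformed MT-4 cells for protection from HIV, with cytotoxicity run in parallel under the same conditions; CellTiter-Glo luminescence read 96 h later. IC50 from 10-point, 3–4-fold serial dilutions spanning >1000-fold, % inhibition relative to no-compound control, fitted by four-parameter logistic.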
In general terms: ATP-based viability assays read luminescence as a measure of living cells.

With `Cc1nc2c(ccn2Cc2cccc(F)c2F)c(-c2ccc3c(c2)CCCO3)c1[C@@H](OC(C)(C)C)C(=O)O` [Example 86, (R)-2-(tert-butoxy)-2-(4-(chroman-6-yl)-1-(2,3-difluorobenzyl)-6-methyl-1H-pyrrolo[2,3-b]pyridin-5-yl)acetic acid], the IC50 amounted to 50 µM. In the case of `Cc1ccc(-c2c([C@H](OC(C)(C)C)C(=O)O)c(C)nc3c2ccn3Cc2ccccc2F)cc1` [Example 88, (S)-2-(tert-butoxy)-2-(1-(2-fluorobenzyl)-6-methyl-4-(p-tolyl)-1H-pyrrolo[2,3-b]pyridin-5-yl)acetic acid], the IC50 came out at 0.107 µM.

For the molecule `Cc1nc2c(ccn2Cc2ccc(F)cc2Cl)c(-c2ccc(Cl)cc2)c1[C@H](OC(C)(C)C)C(=O)O` [Example 89, (S)-2-(tert-butoxy)-2-(1-(2-chloro-4-fluorobenzyl)-4-(4-chlorophenyl)-6-methyl-1H-pyrrolo[2,3-b]pyridin-5-yl)acetic acid], the IC50 was determined as 0.065 µM. In the case of `Cc1nc2c(ccn2Cc2ccc(F)cc2)c(-c2ccc(Cl)cc2F)c1C(OC(C)(C)C)C(=O)O` (centres unmarked) [Example 90, 2-(tert-Butoxy)-2-(4-(4-chloro-2-fluorophenyl)-1-(4-fluorobenzyl)-6-methyl-1H-pyrrolo[2,3-b]pyridin-5-yl)acetic acid] it was 0.48 µM; in that of `Cc1nc2c(ccn2Cc2ccc(F)cc2)c(-c2ccccc2F)c1C(OC(C)(C)C)C(=O)O` (centres unmarked) [Example 91, 2-(tert-Butoxy)-2-(1-(4-fluorobenzyl)-4-(2-fluorophenyl)-6-methyl-1H-pyrrolo[2,3-b]pyridin-5-yl)acetic acid], 0.168 µM; in that of `COc1c(C)cc(-c2c(C(OC(C)(C)C)C(=O)O)c(C)nc3c2ccn3Cc2ccc(F)cc2)cc1C` (centres unmarked) [Example 92, 2-(tert-Butoxy)-2-(1-(4-fluorobenzyl)-4-(4-methoxy-3,5-dimethylphenyl)-6-methyl-1H-pyrrolo[2,3-b]pyridin-5-yl)acetic acid], 0.98 µM. Take `Cc1ccc(-c2c(C(OC(C)(C)C)C(=O)O)c(C)nc3c2ccn3Cc2ccc(F)cc2)c(F)c1` (centres unmarked) [Example 93, 2-(tert-Butoxy)-2-(4-(2-fluoro-4-methylphenyl)-1-(4-fluorobenzyl)-6-methyl-1H-pyrrolo[2,3-b]pyridin-5-yl)acetic acid]: the IC50 came to 0.046 µM. In the case of `Cc1cc(Cl)ccc1-c1c(C(OC(C)(C)C)C(=O)O)c(C)nc2c1ccn2Cc1ccc(F)cc1` (centres unmarked) [Example 94, 2-(tert-Butoxy)-2-(4-(4-chloro-2-methylphenyl)-1-(4-fluorobenzyl)-6-methyl-1H-pyrrolo[2,3-b]pyridin-5-yl)acetic acid, Trifluoroacetic acid salt] it was 0.11 µM; in that of `Cc1nc2c(ccn2Cc2ccc(F)c(F)c2)c(-c2ccc(F)cc2)c1[C@H](OC(C)(C)C)C(=O)O` [Example 102, (S)-2-(tert-Butoxy)-2-(1-(3,4-difluorobenzyl)-4-(4-fluorophenyl)-6-methyl-1H-pyrrolo[2,3-b]193pyridine-5-yl)acetic acid], 0.367 µM; in that of `COc1ccc(-c2c([C@H](OC(C)(C)C)C(=O)O)c(C)nc3c2ccn3Cc2ccc(F)c(F)c2)cc1C` [Example 103, (S)-2-(tert-Butoxy)-2-(1-(3,4-difluorobenzyl)-4-(4-methoxy-3-methylphenyl)-6-methyl-1H-pyrrolo[2,3-b]pyridin-5-yl)acetic acid], 0.81 µM. As to `Cc1nc2c(ccn2Cc2ccc(F)c(F)c2)c(-c2ccc(F)c(Cl)c2)c1[C@H](OC(C)(C)C)C(=O)O` [Example 105, (S)-2-(tert-Butoxy)-2-(4-(3-chloro-4-fluorophenyl)-1-(3,4-difluorobenzyl)-6-methyl-1H-pyrrolo[2,3-b]pyridin-5-yl)acetic acid], the IC50 stood at 1.42 µM.

In the case of `Cc1nc2c(ccn2Cc2ccc(F)c(F)c2)c(-c2ccc(Cl)c(F)c2)c1[C@H](OC(C)(C)C)C(=O)O` [Example 106, (S)-2-(tert-Butoxy)-2-(4-(4-chloro-3-fluorophenyl)-1-(3,4-difluorobenzyl)-6-methyl-1H-pyrrolo[2,3-b]pyridin-5-yl)acetic acid], the IC50 was found to be 0.1 µM. The same measure for `Cc1nc2c(c(-c3ccc4c(c3C)CCCO4)c1[C@H](OC(C)(C)C)C(=O)O)CCN2Cc1ccc(F)c(F)c1` [Example 107, (2S)(M)-2-(tert-Butoxy)-2-(1-(3,4-difluorobenzyl)-6-methyl-4-(5-methylchroman-6-yl)-2,3-dihydro-1H-pyrrolo[2,3-b]pyridin-5-yl)acetic acid, Trifluoroacetic acid salt]: 0.008 µM; for `Cc1nc2c(ccn2Cc2ccc(F)c(F)c2)c(-c2ccc3c(c2)CCO3)c1[C@H](OC(C)(C)C)C(=O)O` [Example 112, (S)-2-(tert-butoxy)-2-(1-(3,4-difluorobenzyl)-4-(2,3-dihydrobenzofuran-5-yl)-6-methyl-1H-pyrrolo[2,3-b]pyridin-5-yl)acetic acid]: 0.011 µM; for `Cc1nc2c(ccn2Cc2ccc(F)c(F)c2)c(C2=CCC(C)(C)CC2)c1[C@H](OC(C)(C)C)C(=O)O` [Example 114, (S)-2-(tert-butoxy)-2-(1-(3,4-difluorobenzyl)-4-(4,4-dimethylcyclohex-1-en-1-yl)-6-methyl-1H-pyrrolo[2,3-b]pyridin-5-yl)acetic acid]: 0.08 µM. In the case of `Cc1ccc(-c2c([C@H](OC(C)(C)C)C(=O)O)c(C)nc3c2ccn3Cc2ccc(F)c(F)c2)c(F)c1` [Example 115, (2S)-2-(tert-Butoxy)-2-(1-(3,4-difluorobenzyl)-4-(2-fluoro-4-methylphenyl)-6-methyl-1H-pyrrolo[2,3-b]pyridin-5-yl)acetic acid], the IC50 was 0.029 µM.

With `Cc1nc2c(ccn2Cc2ccc(F)c(F)c2)c(-c2ccc3ncsc3c2)c1[C@H](OC(C)(C)C)C(=O)O` [Example 117, (S)-2-(4-(Benzo[d]thiazol-6-yl)-1-(3,4-difluorobenzyl)-6-methyl-1H-pyrrolo[2,3-b]pyridin-5-yl)-2-(tert-butoxy)acetic acid, Trifluoroacetic acid salt], the IC50 was found to be 0.036 µM. Take `Cc1nc2c(ccn2Cc2ccc(F)c(F)c2)c(C2=CCCCC2)c1[C@H](OC(C)(C)C)C(=O)O` [Example 120, (S)-2-(tert-butoxy)-2-(4-(cyclohex-1-en-1-yl)-1-(3,4-difluorobenzyl)-6-methyl-1H-pyrrolo[2,3-b]pyridin-5-yl)acetic acid]: the IC50 was 0.15 µM.

Take `COc1cccc(F)c1Cn1ccc2c(-c3ccc4c(c3C)CCCO4)c([C@H](OC(C)(C)C)C(=O)O)c(C)nc21` [Example 121, (2S)-2-(tert-butoxy)-2-(1-(2-fluoro-6-methoxybenzyl)-6-methyl-4-(5-methylchroman-6-yl)-1H-pyrrolo[2,3-b]pyridin-5-yl)acetic acid]: the IC50 came out at 0.002 µM. In the case of `Cc1nc2c(ccn2Cc2ccc(F)c(F)c2)c(-c2ccc3c(c2)C(C)(C)CO3)c1[C@H](OC(C)(C)C)C(=O)O` [Example 123, (S)-2-(tert-butoxy)-2-(1-(3,4-difluorobenzyl)-4-(3,3-dimethyl-2,3-dihydrobenzofuran-5-yl)-6-methyl-1H-pyrrolo[2,3-b]pyridin-5-yl)acetic acid] it was 2.86 µM; in that of `Cc1cc(F)ccc1Cn1ccc2c(-c3ccc4c(c3C)CCCO4)c([C@H](OC(C)(C)C)C(=O)O)c(C)nc21` [Example 125, (2S)-2-(tert-butoxy)-2-(1-(4-fluoro-2-methylbenzyl)-6-methyl-4-(5-methylchroman-6-yl)-1H-pyrrolo[2,3-b]pyridin-5-yl)acetic acid], 0.003 µM; in that of `Cc1nc2c(c(-c3ccc4c(c3C)CCCO4)c1C(OC(C)(C)C)C(=O)O)c1ccccc1n2C` (centres unmarked) [Example 127, 2-(tert-butoxy)-2-(2,9-dimethyl-4-(5-methylchroman-6-yl)-9H-pyrido[2,3-b]indol-3-yl)acetic acid], 0.05 µM. Regarding `Cc1nc2c(c3c(n2C2CC2)CCCC3)c(-c2ccc3c(c2C)CCCO3)c1C(OC(C)(C)C)C(=O)O` (centres unmarked) [Example 128, 2-(tert-butoxy)-2-(9-cyclopropyl-2-methyl-4-(5-methylchroman-6-yl)-6,7,8,9-tetrahydro-5H-pyrido[2,3-b]indol-3-yl)acetic acid], the IC50 came to 0.06 µM.
